Earlier results in patent US20120258170A1, “PHARMACEUTICAL CO-CRYSTALS OF QUERCETIN” (Nutracryst Therapeutics Private Limited, priority 2009, published 2012).

What was measured:
HeLa cells = conditions: Quercetin pretreatment; cited from earlier work
[1] = P<0.05; cited from earlier work
[2] = target: human lens aldose reductase (Homo sapiens, UniProt P15121); conditions: cited from earlier work
[3] = test system: AMP-activated protein kinase (AMPK); conditions: HepG2 cells; cited from earlier work
[4] = target: angiotensin-converting enzyme (Homo sapiens, UniProt P12821); conditions: cited from earlier work
Chain of angiotensin-converting enzyme (P12821 30-1306, species assumed): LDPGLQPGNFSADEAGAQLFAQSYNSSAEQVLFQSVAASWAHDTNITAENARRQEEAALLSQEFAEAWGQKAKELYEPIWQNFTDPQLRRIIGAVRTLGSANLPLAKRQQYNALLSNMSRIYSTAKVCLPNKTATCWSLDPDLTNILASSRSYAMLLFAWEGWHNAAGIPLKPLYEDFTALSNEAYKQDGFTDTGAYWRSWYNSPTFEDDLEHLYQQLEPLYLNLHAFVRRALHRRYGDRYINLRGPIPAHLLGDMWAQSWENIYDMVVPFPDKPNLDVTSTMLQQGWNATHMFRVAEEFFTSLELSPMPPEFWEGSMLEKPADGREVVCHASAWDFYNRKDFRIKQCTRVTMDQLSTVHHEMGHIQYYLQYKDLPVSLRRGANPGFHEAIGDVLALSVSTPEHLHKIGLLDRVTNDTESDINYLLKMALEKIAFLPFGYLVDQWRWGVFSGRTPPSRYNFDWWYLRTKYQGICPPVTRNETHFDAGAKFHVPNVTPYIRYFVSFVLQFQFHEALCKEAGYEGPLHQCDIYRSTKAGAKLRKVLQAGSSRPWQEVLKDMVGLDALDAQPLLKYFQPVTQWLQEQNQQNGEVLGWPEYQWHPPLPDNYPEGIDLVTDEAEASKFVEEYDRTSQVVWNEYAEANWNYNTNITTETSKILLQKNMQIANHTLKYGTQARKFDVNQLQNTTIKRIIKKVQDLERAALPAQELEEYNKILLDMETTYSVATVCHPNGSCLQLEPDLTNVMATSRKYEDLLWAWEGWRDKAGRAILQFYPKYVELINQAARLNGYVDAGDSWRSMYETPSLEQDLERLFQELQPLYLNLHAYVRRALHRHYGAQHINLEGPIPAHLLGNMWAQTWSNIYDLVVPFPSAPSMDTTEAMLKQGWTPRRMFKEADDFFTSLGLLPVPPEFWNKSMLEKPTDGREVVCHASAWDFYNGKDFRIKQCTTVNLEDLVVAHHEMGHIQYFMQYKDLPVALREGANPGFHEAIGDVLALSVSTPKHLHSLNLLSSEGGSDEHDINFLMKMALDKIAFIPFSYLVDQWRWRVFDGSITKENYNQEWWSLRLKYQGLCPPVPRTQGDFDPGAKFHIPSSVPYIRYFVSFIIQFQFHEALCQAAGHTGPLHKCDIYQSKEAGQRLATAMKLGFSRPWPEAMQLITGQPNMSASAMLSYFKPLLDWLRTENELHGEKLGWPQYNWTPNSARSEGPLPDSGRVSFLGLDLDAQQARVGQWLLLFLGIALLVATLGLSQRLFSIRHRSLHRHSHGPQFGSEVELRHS

SMILES: O=c1c(O)c(-c2ccc(O)c(O)c2)oc2cc(O)cc(O)c12 [Quercetin]
- cisplatin-induced apoptosis in HeLa cells (HeLa cells): sensitizes
- mRNA expression of PGC-1alpha and SIRT1, mtDNA and cytochrome C concentration [1]: increased
- maximal endurance capacity and voluntary wheel running activity [1]: increase
- inhibition of human lens aldose reductase [2]: strong inhibitor
- AMPK phosphorylation [3]: increased
- hypotensive effect of bradykinin ([4]; pretreatment 88.7 μmol/kg p.o., 45 min, 14.7 μmol/kg i.v., 5 min, bradykinin 10 nmol/kg i.v.): significantly potentiated
- hypertensive response to angiotensin I ([4]; same pretreatment, angiotensin I 0.1 nmol/kg iv): significantly reduced
